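Exposure lasted 48 hours, with cells grown in 96-well plates and compounds tested at five concentrations. Abbreviation: GI50, concentration required for 50% inhibition of growth.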 Calls of active or inactive are those of the source. Rule as the data show it: active = GI50 up to about 1.1 µM and inactive = higher.
Experiments:
Assay in all cases: NCI tumour cell line growth inhibition, 48 h
HCT-15 = test system: HCT-15
HCC 2998 = test system: HCC 2998
SF-295 = test system: SF-295
SNB-75 = test system: SNB-75
PC-3 = test system: PC-3
OVCAR-4 = test system: OVCAR-4
786-0 = test system: 786-0
SK-MEL-2 = test system: SK-MEL-2
HOP-92 = test system: HOP-92
U-251 = test system: U-251
K562 = test system: K562
UACC-257 = test system: UACC-257
SK-MEL-5 = test system: SK-MEL-5
ACHN = test system: ACHN
HCT-116 = test system: HCT-116
SK-MEL-28 = test system: SK-MEL-28
IGROV-1 = test system: IGROV-1
DU-145 = test system: DU-145
HL-60 = test system: HL-60
SF-539 = test system: SF-539

Row | SMILES | GI50 (HCT-15) [µM] | GI50 (HCC 2998) | GI50 (SF-295) | GI50 (SNB-75) | GI50 (PC-3) | GI50 (OVCAR-4) | GI50 (786-0) | GI50 (SK-MEL-2) | GI50 (HOP-92) | GI50 (U-251) | GI50 (K562) | GI50 (UACC-257) | GI50 (SK-MEL-5) | GI50 (ACHN) | GI50 (HCT-116) | GI50 (SK-MEL-28) | GI50 (IGROV-1) | GI50 (DU-145) | GI50 (HL-60) | GI50 (SF-539)
1 | Nc1nc(SCCc2ccccc2)c2nc[nH]c2n1 | 37.2 | 25.9 µM (inactive) | 71.9 µM (inactive) | 33 µM (inactive) | 38.9 µM (inactive) | > 100 µM (inactive) | 78.2 µM (inactive) | 30.7 µM (inactive) | 76.6 µM (inactive) | 58.5 µM (inactive) | 48.1 µM (inactive) | 23.7 µM (inactive) | 45.1 µM (inactive) | 35.7 µM (inactive) | 68.5 µM (inactive) | 58.9 µM (inactive) | 51.1 µM (inactive) | 36.2 µM (inactive) |  | 
2 | Cc1cc(O)c(C=O)c2c1C(=O)Oc1c(CO)c(O)c3c(c1O2)C(O)OC3=O (configuration not stated) [SLAZINIC ACID] | 55.2 | > 100 µM (inactive) | > 100 µM (inactive) | 24.1 µM (inactive) | > 100 µM (inactive) | 27.5 µM (inactive) | > 100 µM (inactive) | 97.1 µM (inactive) | 50.6 µM (inactive) | 60.5 µM (inactive) |  | > 100 µM (inactive) | 34.3 µM (inactive) | 40.1 µM (inactive) | 69.8 µM (inactive) | 91.8 µM (inactive) | > 100 µM (inactive) | > 100 µM (inactive) | 30.1 µM (inactive) | > 100 µM (inactive)
3 | CC#CS(=O)(=O)c1ccccc1 | 2.88 | 3.96 µM (inactive) | 3.56 µM (inactive) | 3.01 µM (inactive) | 12.1 µM (inactive) | 3.19 µM (inactive) | 3.43 µM (inactive) | 14.2 µM (inactive) | 2.51 µM (inactive) | 12.9 µM (inactive) |  | 2.88 µM (inactive) | 2.81 µM (inactive) | 3.57 µM (inactive) | 4.36 µM (inactive) | 3.13 µM (inactive) | 11.9 µM (inactive) | 2.82 µM (inactive) | 1.8 µM (inactive) | 4.08 µM (inactive)
4 | CCOC(=O)CSc1[nH]c(NC(=S)Nc2ccccc2)c(C(N)=O)c1C(N)=O | > 10 | 6.28 µM (inactive) | > 10 µM (inactive) | > 10 µM (inactive) | > 10 µM (inactive) | > 10 µM (inactive) | > 10 µM (inactive) |  | > 10 µM (inactive) |  | > 10 µM (inactive) | > 10 µM (inactive) | > 10 µM (inactive) |  |  | > 10 µM (inactive) | > 10 µM (inactive) | > 10 µM (inactive) | 2.32 µM (inactive) | 
5 | CCCCn1c2c(n(CCCC)c1=S)-c1c(n(CCCC)c(=S)n1CCCC)S[Se][Se]S2 | 2.94 | 23.6 µM (inactive) | 3.51 µM (inactive) | 5.13 µM (inactive) | 2.26 µM (inactive) | 0.815 µM (active) | 4.62 µM (inactive) | 8.75 µM (inactive) | 0.942 µM (active) | 4.37 µM (inactive) | 1.63 µM (inactive) | 8.87 µM (inactive) | 5.85 µM (inactive) | 2.67 µM (inactive) | 4.27 µM (inactive) | 16.6 µM (inactive) | 2.42 µM (inactive) | 16.9 µM (inactive) |  | 3.81 µM (inactive)
6 | OCCN(CCO)c1nc(N2CCCCC2)c2nc(N(CCO)CCO)nc(N3CCCCC3)c2n1 [DIPYRIDAMOLE] | 31.4 | 16.3 µM (inactive) |  |  | 33.3 µM (inactive) | 59.4 µM (inactive) | 31.9 µM (inactive) | 34.6 µM (inactive) | 12.1 µM (inactive) |  | 24.8 µM (inactive) | 39.3 µM (inactive) | 21.6 µM (inactive) | 33.9 µM (inactive) | 40.3 µM (inactive) | 43 µM (inactive) | 66.7 µM (inactive) | 48.8 µM (inactive) | 15.7 µM (inactive) | 
7 | O=C(Nc1ccccc1)c1cc2ccccc2c(/N=N\c2cccc([N+](=O)[O-])c2)c1O | > 100 | > 100 µM (inactive) | > 100 µM (inactive) | 33.5 µM (inactive) | > 100 µM (inactive) | 97.5 µM (inactive) | 31.3 µM (inactive) | > 100 µM (inactive) | > 100 µM (inactive) | 24.6 µM (inactive) | 89.3 µM (inactive) | > 100 µM (inactive) | > 100 µM (inactive) | 31 µM (inactive) | > 100 µM (inactive) | 94.4 µM (inactive) | 37.7 µM (inactive) | > 100 µM (inactive) |  | 54.8 µM (inactive)
8 | COc1ccc2c(c1)CCc1c-2n(CCN2CCOCC2)c2ccc(OC)cc12 | 41 | 3.92 µM (inactive) | 61.4 µM (inactive) | 0.0515 µM (active) | 63.2 µM (inactive) | > 100 µM (inactive) | 82.8 µM (inactive) | > 100 µM (inactive) | > 100 µM (inactive) | > 100 µM (inactive) | 14.8 µM (inactive) | > 100 µM (inactive) | 54.7 µM (inactive) | 82.2 µM (inactive) | 63.2 µM (inactive) | > 100 µM (inactive) | 80.2 µM (inactive) | > 100 µM (inactive) |  | > 100 µM (inactive)
9 | CC(C)c1c(P(=O)(c2ccccc2)c2ccccc2)n(C)c2ccccc12 | 72.3 | > 100 µM (inactive) | 45.6 µM (inactive) | 95.3 µM (inactive) | 58.7 µM (inactive) | 71.4 µM (inactive) | > 100 µM (inactive) | 88.3 µM (inactive) | > 100 µM (inactive) | 97.3 µM (inactive) | 37.8 µM (inactive) | 90.6 µM (inactive) |  | 35.2 µM (inactive) | 35.9 µM (inactive) | 76.7 µM (inactive) |  | 80.2 µM (inactive) | 28.1 µM (inactive) | > 100 µM (inactive)
10 | CCCCCCCCCCCCCCCCCCNC(=O)C(N)Cc1ccc(OCc2ccccc2)cn1 (configuration not stated) | 18.9 | 11.9 µM (inactive) | 24 µM (inactive) | 27.4 µM (inactive) | 14.2 µM (inactive) | 17.2 µM (inactive) | 24.5 µM (inactive) | 17.1 µM (inactive) | 17.1 µM (inactive) | 18.5 µM (inactive) | 23.1 µM (inactive) | 19.1 µM (inactive) | 18 µM (inactive) | 24.1 µM (inactive) | 21.5 µM (inactive) | 24.1 µM (inactive) | 15.2 µM (inactive) | 21.3 µM (inactive) | 15.7 µM (inactive) | 
11 | COC(=O)C1(CCC(C)=O)CCCCCC1=O (configuration not stated) | > 100 | > 100 µM (inactive) | > 100 µM (inactive) | > 100 µM (inactive) | > 100 µM (inactive) | > 100 µM (inactive) | > 100 µM (inactive) | > 100 µM (inactive) | > 100 µM (inactive) | > 100 µM (inactive) | > 100 µM (inactive) | > 100 µM (inactive) | > 100 µM (inactive) | > 100 µM (inactive) | > 100 µM (inactive) | > 100 µM (inactive) | > 100 µM (inactive) | > 100 µM (inactive) |  | > 100 µM (inactive)
12 | O=C(Nc1ccccn1)/C(=C\C(=O)c1ccc(Cl)cc1)Nc1ccccc1 | > 10 | > 10 µM (inactive) | > 10 µM (inactive) | 5.68 µM (inactive) | > 10 µM (inactive) | > 10 µM (inactive) | 7.16 µM (inactive) |  | > 10 µM (inactive) |  | > 10 µM (inactive) | > 10 µM (inactive) | > 10 µM (inactive) |  |  | > 10 µM (inactive) | > 10 µM (inactive) | > 10 µM (inactive) | > 10 µM (inactive) | 
13 | Cc1ccc(/N=C2N=C(Cl)/C(=C\c3ccccc3)N\2)cc1 | 2.88 | 12.2 µM (inactive) | > 79.3 µM (inactive) | > 100 µM (inactive) | > 79.3 µM (inactive) | 65.2 µM (inactive) | > 100 µM (inactive) | > 100 µM (inactive) | > 100 µM (inactive) | > 100 µM (inactive) | 5.52 µM (inactive) | > 76.6 µM (inactive) | 48.8 µM (inactive) |  | > 100 µM (inactive) | > 100 µM (inactive) | > 100 µM (inactive) | 64.6 µM (inactive) | 3.9 µM (inactive) | > 100 µM (inactive)
14 | Cc1ccc(OCC2OC(n3cnc4c(Cl)nc(Cl)nc43)CC2Oc2ccc(C)cc2)cc1 (configuration not stated) | 1.82 | 16.5 µM (inactive) | 2.52 µM (inactive) | 2.52 µM (inactive) | 2.44 µM (inactive) | 2.15 µM (inactive) | 14.5 µM (inactive) | 2.24 µM (inactive) | 2.28 µM (inactive) | 2.13 µM (inactive) |  | 2.68 µM (inactive) | 7.1 µM (inactive) | 1.37 µM (inactive) | 1.91 µM (inactive) | 2.7 µM (inactive) | 2.04 µM (inactive) | 1.91 µM (inactive) | 2.36 µM (inactive) | 1.93 µM (inactive)
15 | CCOC(=O)/C(C#N)=C/c1ccc(SCc2ccco2)c([N+](=O)[O-])c1 |  | > 100 µM (inactive) | > 100 µM (inactive) | > 100 µM (inactive) | > 100 µM (inactive) | > 100 µM (inactive) | > 100 µM (inactive) | > 100 µM (inactive) | > 100 µM (inactive) | > 100 µM (inactive) | > 100 µM (inactive) | > 100 µM (inactive) | > 100 µM (inactive) | > 100 µM (inactive) | > 100 µM (inactive) | > 100 µM (inactive) | > 100 µM (inactive) | > 100 µM (inactive) | > 100 µM (inactive) | 56.8 µM (inactive)
